Consider four compounds from patent publication US20230203081A1, “LINCOSAMIDE ANTIBIOTICS AND USES THEREOF” (President and Fellows of Harvard College, priority 2020, published 2023).

In brackets after ≈: the same amount, converted by molar mass. Where two headings read alike, the source gives them in different places. Where only a bound is given, the exact number is not on record here.

Holding throughout (assay type): cell-based
One test relates to E. coli ΔTolC. The experiment in a line: microbe, parasite or virus in culture. To be noted: Escherichia coli. Put shortly: (§1)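 Per CLSI, MICs by broth microdilution or agar dilution; strains other than streptococci and anaerobes were sub-cultured overnight at 35° C on blood agar, with a final broth inoculum of 5×10^5 CFU/mL.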
For another test, the system named is E. faecium Clinical VRE. The experiment in a line: MIC (broth microdilution or agar dilution, CLSI). The following applies: Enterococcus faecium; E. faecium Clinical VRE; read-out: MIC. Put shortly: (§2)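 Triplicate CLSI determinations by broth or agar dilution, compound at 128-0.06 μg/mL in 2.5% DMSO; special handling for anaerobes. Broth microdilution used 5×10^5 CFU/mL inocula in cation-adjusted Mueller-Hinton broth.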
For orientation: Dilution methods test growth across graded concentrations, often in twofold steps.

Another test has as its system P. aeruginosa ATCC 27853. The experiment in a line: MIC (broth microdilution or agar dilution, CLSI). To be noted: Pseudomonas aeruginosa, ATCC27853; P. aeruginosa ATCC 27853; read-out: MIC. The procedure, abridged:
as §2

For a further test, the system named is S. aureus cErmA. Kind of test: MIC (broth microdilution or agar dilution, CLSI). To be noted: Staphylococcus aureus; S. aureus cErmA; read-out: MIC. Put shortly: as §2
For a further test, the system named is A. baumannii ATCC 19606. The experiment in a line: MIC (broth microdilution or agar dilution, CLSI). To be noted: Acinetobacter baumannii, ATCC19606; A. baumannii ATCC 19606; read-out: MIC. Put shortly:
as §1

The test system of a further test is E. coli ATCC 25922. Kind of test: MIC (broth microdilution or agar dilution, CLSI). The following applies: Escherichia coli, ATCC25922, read-out: MIC. The procedure, abridged:
as §1

The test system of another test is E. coli LptD. Kind of test: MIC (broth microdilution or agar dilution, CLSI). To be noted: Escherichia coli, read-out: MIC. The procedure, abridged: as §1
A further test has as its system E. faecalis ATCC 29212. The experiment in a line: MIC (broth microdilution or agar dilution, CLSI). To be noted: Enterococcus faecalis, read-out: MIC. Put shortly: as §1
For the next test, the system named is K. oxytoca Clinical. Kind of test: MIC (broth microdilution or agar dilution, CLSI). The following applies: Klebsiella oxytoca, read-out: MIC. The procedure, abridged:
as §1

For a further test, the system named is S. aureus ATCC 29213. The experiment in a line: MIC (broth microdilution or agar dilution, CLSI). To be noted: Staphylococcus aureus, read-out: MIC. Put shortly: as §1
The subject of another test is S. pneumoniae ATCC 49619. Kind of test: MIC (broth microdilution or agar dilution, CLSI). The following applies: Streptococcus pneumoniae, read-out: MIC. Put shortly: as §1
A further test concerns S. pyogenes ATCC 19615. The experiment in a line: MIC (broth microdilution or agar dilution, CLSI). The following applies: Streptococcus pyogenes, read-out: MIC. The procedure, abridged:
as §1

Another test deals with S. aureus BAA 977 iErmA. Kind of test: microbe, parasite or virus in culture. To be noted: Staphylococcus aureus, BAA-977 / MRSA. Put shortly: as §1
The next test has as its system S. aureus MP-549 msrA. The experiment in a line: microbe, parasite or virus in culture. The following applies: Staphylococcus aureus, MP549MSRA; S. aureus HAV#032, MP-549; MSR(A). The procedure, abridged: as §1
For test [1], the system named is broad panel of different clinical isolates. The experiment in a line: microbe, parasite or virus in culture. The procedure, abridged:
as §1

Test [2] concerns E. faecalis MMX 847; cErmB. Kind of test: MIC (broth microdilution or agar dilution, CLSI). To be noted: Enterococcus faecalis; E. faecalis HAV#036, MMX 847; mac-resistant, cErmB; read-out: MIC. The procedure, abridged:
as §1

In test [3] the test system is S. aureus ATCC BAA-1707 (MRSA). The experiment in a line: MIC (broth microdilution or agar dilution, CLSI). The following applies: Staphylococcus aureus; S. aureus HAV#016, ATCC BAA-1707; MRSA; read-out: MIC. Put shortly:
as §1

The next test relates to S. aureus MMX 3035 cErmA. Kind of test: MIC (broth microdilution or agar dilution, CLSI). The following applies: Staphylococcus aureus, MMX3035CERMA; S. aureus HAV#031, MMX 3035; cErmA; read-out: MIC. Put shortly: as §1
The next test has as its system S. aureus hVISA. Kind of test: MIC (broth microdilution or agar dilution, CLSI). To be noted: Staphylococcus aureus; S. aureus HAV#204, hVISA; read-out: MIC. The procedure, abridged:
as §1

For a further test, the system named is S. pneumoniae ATCC 6303. The experiment in a line: MIC (broth microdilution or agar dilution, CLSI). The following applies: Streptococcus pneumoniae, ATCC6303; S. pneumoniae HAV#351, ATCC 6303; read-out: MIC. Put shortly:
as §1

Test [4] has as its system S. pneumoniae MMX 3028 cErmB. Kind of test: MIC (broth microdilution or agar dilution, CLSI). The following applies: Streptococcus pneumoniae, MMX3028CERMB; S. pneumoniae HAV#033; MMX 3028, cErmB; read-out: MIC. The procedure, abridged:
as §1

In test [5] the test system is S. pneumoniae MMX 3031 cMefA. The experiment in a line: MIC (broth microdilution or agar dilution, CLSI). The following applies: Streptococcus pneumoniae, MMX3031CMEFA, S. pneumoniae HAV#034; MMX 3031, cMefA; read-out: MIC. The procedure, abridged:
as §1

Test [6] relates to S. pyogenes MMX 946; cErmB. The experiment in a line: MIC (broth microdilution or agar dilution, CLSI). To be noted: Streptococcus pyogenes; S. pyogenes HAV#035, MMX 946; cErmB, mac-resistant; read-out: MIC. Put shortly: as §1
[7] abbreviates: ATCC29212, E. faecalis ATCC 29212.
Setting [8] is: ATCC29213, S. aureus ATCC 29213.
[9] abbreviates: ATCC49619, S. pneumoniae ATCC 49619.
Setting [10] is: ATCC19615, S. pyogenes ATCC 19615.

As for `C=C[C@@H]1CCO[C@@H]2[C@H](CN[C@@H]2C(=O)N[C@H]([C@H](C)Cl)[C@H]2OC(SC)[C@H](O)[C@H](O)C2O)C1` (stereo partly drawn) [FSA-10-10-013], the MIC was 2 µg/mL (≈ 4.3 µM) against E. coli ΔTolC (E. coli ΔTolC); 32 µg/mL (≈ 68.8 µM) with E. faecium Clinical VRE; more than 128 µg/mL with P. aeruginosa ATCC 27853; 64 µg/mL (≈ 138 µM) in the test on S. aureus cErmA; more than 128 µg/mL in the test with A. baumannii ATCC 19606; 64 µg/mL (≈ 138 µM) in the test with E. coli ATCC 25922 (E. coli ATCC 25922). Also, the MIC with E. coli LptD (E. coli LptD) came to 4 µg/mL (≈ 8.6 µM); in the test on E. faecalis ATCC 29212 (setting [7]) it was 2 µg/mL (≈ 4.3 µM); in the test on K. oxytoca Clinical (K. oxytoca Clinical), 128 µg/mL (≈ 275 µM); with S. aureus ATCC 29213 (setting [8]), 0.25 µg/mL (≈ 0.538 µM); in the test with S. pneumoniae ATCC 49619 (setting [9]), 0.25 µg/mL (≈ 0.538 µM); in the test with S. pyogenes ATCC 19615 (setting [10]) it was 0.25 µg/mL (≈ 0.538 µM).

`CSC1O[C@H]([C@H](NC(=O)[C@H]2NC[C@@H]3C[C@H](C)CCO[C@H]32)[C@H](C)Cl)C(O)[C@@H](O)[C@H]1O` (stereo partly drawn) [FSA-10-10-014]: the MIC in the test with E. coli ΔTolC (E. coli ΔTolC) is 8 µg/mL (≈ 17.7 µM); in the test with E. faecium Clinical VRE, 64 µg/mL (≈ 141 µM); in the test with P. aeruginosa ATCC 27853 it was more than 128 µg/mL; in the test on S. aureus cErmA, 64 µg/mL (≈ 141 µM); with A. baumannii ATCC 19606 it was more than 128 µg/mL; in the test on E. coli ATCC 25922 (E. coli ATCC 25922), 64 µg/mL (≈ 141 µM). Besides, the MIC came out at 8 µg/mL (≈ 17.7 µM) in the test with E. coli LptD (E. coli LptD); 16 µg/mL (≈ 35.3 µM) in the test with E. faecalis ATCC 29212 (setting [7]); 128 µg/mL (≈ 283 µM) in the test with K. oxytoca Clinical (K. oxytoca Clinical); 1 µg/mL (≈ 2.21 µM) in the test on S. aureus ATCC 29213 (setting [8]); 2 µg/mL (≈ 4.42 µM) with S. pneumoniae ATCC 49619 (setting [9]); 1 µg/mL (≈ 2.21 µM) in the test with S. pyogenes ATCC 19615 (setting [10]).

As for `COCCC[C@@H]1CCO[C@@H]2[C@H](CN[C@@H]2C(=O)N[C@H]([C@H](C)Cl)[C@H]2OC(SC)[C@H](O)[C@H](O)C2O)C1` (stereo partly drawn) [FSA-10-10-022], the MIC is 0.5 µg/mL (≈ 0.978 µM) against E. coli ΔTolC (E. coli ΔTolC); 8 µg/mL (≈ 15.7 µM) in the test with E. faecium Clinical VRE; more than 128 µg/mL in the test on P. aeruginosa ATCC 27853; 16 µg/mL (≈ 31.3 µM) with S. aureus cErmA; more than 128 µg/mL with A. baumannii ATCC 19606; 32 µg/mL (≈ 62.6 µM) in the test on E. coli ATCC 25922 (E. coli ATCC 25922). Also, the MIC with E. coli LptD (E. coli LptD) turned out to be 4 µg/mL (≈ 7.83 µM); in the test with E. faecalis ATCC 29212 (setting [7]), 2 µg/mL (≈ 3.91 µM); in the test on K. oxytoca Clinical (K. oxytoca Clinical), 32 µg/mL (≈ 62.6 µM); with S. aureus ATCC 29213 (setting [8]), 0.125 µg/mL (≈ 0.245 µM); with S. pneumoniae ATCC 49619 (setting [9]), 0.25 µg/mL (≈ 0.489 µM); with S. pyogenes ATCC 19615 (setting [10]), 0.25 µg/mL (≈ 0.489 µM).

As to `Cc1onc(-c2ccccc2)c1C(=O)N[C@@H]1C(=O)N2[C@@H]1SC(C)(C)[C@@H]2C(=O)O` [Oxacillin], the MIC was 16 µg/mL (≈ 39.9 µM) against E. coli ΔTolC (E. coli HAV#038, ΔTolC); 0.5 µg/mL (≈ 1.25 µM) with S. aureus BAA 977 iErmA; 64 µg/mL (≈ 159 µM) against S. aureus MP-549 msrA; more than 64 µg/mL in test [1] (Enterococcus faecalis, VRE, E. faecalis HAV#251, Clinical VRE); more than 64 µg/mL in [1] (Staphylococcus aureus, MRSA, S. aureus HAV#0107, MRSA Col(Colindale, England)); 64 µg/mL (≈ 159 µM) in test [1] (Staphylococcus aureus, VISA, S. aureus HAV#203, Clinical (VISA)). Besides, the MIC with E. coli ATCC 25922 (E. coli HAV#006, ATCC 25922) is more than 64 µg/mL; in the test with E. coli LptD (E. coli HAV#040, LptD), 4 µg/mL (≈ 9.96 µM); with E. faecalis ATCC 29212 (ATCC29212, E. faecalis HAV#005, ATCC 29212) it was 32 µg/mL (≈ 79.7 µM); in test [2] it was 64 µg/mL (≈ 159 µM); in the test with K. oxytoca Clinical (K. oxytoca HAV#450, Clinical) it was more than 64 µg/mL; with S. aureus ATCC 29213 (ATCC29213, S. aureus HAV#001, ATCC 29213, MP-549) it was 0.5 µg/mL (≈ 1.25 µM). Besides, the MIC was more than 64 µg/mL in test [3]; more than 64 µg/mL with S. aureus MMX 3035 cErmA; 64 µg/mL (≈ 159 µM) in the test with S. aureus hVISA; 2 µg/mL (≈ 4.98 µM) in the test on S. pneumoniae ATCC 49619 (ATCC49619, S. pneumoniae HAV#003, ATCC 49619); 0.5 µg/mL (≈ 1.25 µM) with S. pneumoniae ATCC 6303; 2 µg/mL (≈ 4.98 µM) in test [4]. The MIC is 16 µg/mL (≈ 39.9 µM) in test [5]; 0.125 µg/mL (≈ 0.311 µM) in the test on S. pyogenes ATCC 19615 (ATCC19615, S. pyogenes HAV#004, ATCC 19615); 0.25 µg/mL (≈ 0.623 µM) in test [6].
